Results from patent US20250281517A1, “SENOLYSIS BY AMMONIA-LOWERING COMPONENT” (TAZ Inc., priority 2022, published 2025).

Tests used:
p21 = experiment: mRNA expression level of p21, a marker of senescent cells, in tissues of aged mice (real-time RT-PCR, GAPDH as internal standard); type: in vivo; conditions: aged male C57BL/6J mice (78 weeks old), test substance in drinking water ad libitum for one month, compared to aged mice having no additional administration
Experimental: (§1) As animals, experiments was performed using 7 young mice (male C57BL/6J mice, 7 weeks old) and 28 aged mice (male C57BL/6J-Aged mice, 78 weeks old).
(§2) Group 1 was constituted of young mice, and aged mice were divided into 4 groups each consisting of 7 mice (Groups 2 to 5) and the experimental conditions of individual groups are set as shown in the Table below.
(§3) As explained below, water comprising a test substance was given to the mice of Group 3 to Group 5.
The each types of drinking water which were prepared by adding a test substance as mentioned above was given to mice of each of the groups ad libitum, and the test substance was orally administered for one month. One month after the initiation of the experiment, all mice were sacrificed and dissected. […]
(§4) The RNA was purified with 75% ethanol, evaporated to dry under reduced pressure, and dissolved in 50 micro l of RNA-free water. Using NanoDrop ND-1000 (NanoDrop Technologies), absorbance was measured at 260 nm and 280 nm to determination of an absorbance ratio (A260/280 nm), RNA purity was confirmed by checking whether or not the absorbance ratio falls within the range of 1.9 to 2.1.
Quantitative real-time PCR was performed using total RNA extracted from the tissue for analysis of mRNA expressions of senescence markers p16 and p21 commonly known in the technical field. […]

p16 = experiment: mRNA expression level of p16, a marker of senescent cells, in tissues of aged mice (real-time RT-PCR, GAPDH as internal standard); type: in vivo; conditions: aged male C57BL/6J mice (78 weeks old), test substance in drinking water ad libitum for one month, compared to aged mice having no additional administration; for mRNA expression level of marker p16 for senescent cells in the hippocampus: FIG. 3
Experimental: as §1, §2, §3
The each types of drinking water which were prepared by adding a test substance as mentioned above was given to mice of each of the groups ad libitum, and the test substance was orally administered for one month. One month after the initiation of the experiment, all mice were sacrificed and dissected. From each of the mice, the liver, kidney, hippocampus and skeletal muscle were collected for measurement markers for senescent cells.
The tissues were collected from mice at the time of dissection and soaked in RNAlater (Ambion) overnight and thereafter stored at −80° C. Total RNA was extracted from the liver tissue by the TRIzol-chroloform method.
The tissue extracted from RNAlater (50 to 100 mg) was put in 1 ml of TRIzol Reagent (Invitrogen Life Technologies), crushed. After standing still at room temperature for 5 minutes, 0.2 ml of chloroform was added and stirred. After standing still at room temperature for 2 to 3 minutes, the mixture was centrifuged at 4° C. and 12,000×g for 15 minutes. The upper layer (250 micro l) was recovered and 0.5 ml of isopropanol was added. […]
as §4
Quantitative real-time PCR was performed using total RNA extracted from the tissue for analysis of mRNA expressions of senescence markers p16 and p21 commonly known in the technical field.
From the total RNA, CDNA was synthesized using PrimeScript (Registered trademark) RT reagent Kit (Perfect Real Time) in accordance with the protocol of the manufacturer. Then, CDNA was amplified by Thermal Cycler Dice Real Time System TP800 (Takara Bio) and fluorescence was detected by SYBR (Registered trademark) Premix Ex Taq™ (Perfect Real Time) and real-time PCR detection system (Takara Bio). […]
Using the mRNA expression of glyceraldehyde-3-phosphate dehydrogenase (GAPDH) as an internal standard for correction, the relative values of mRNAs of interest were calculated. […]

Structure (SMILES) | mRNA expression level of marker p21 for senescent cells in the kidney (p21; kidney, FIG. 1) | mRNA expression level of marker p21 for senescent cells in the liver (p21; liver, FIG. 2, upper panel) | mRNA expression level of marker p16 for senescent cells in the hippocampus (p16) | mRNA expression level of marker p16 for senescent cells in the liver (p16; liver, FIG. 2, lower panel) | mRNA expression level of marker p16 for senescent cells in the skeletal muscle (p16; skeletal muscle, FIG. 4)
OC[C@H]1O[C@@H](O[C@@H]2[C@@H](CO)OC(O)(CO)[C@H]2O)[C@H](O)[C@@H](O)[C@H]1O (mixture of isomers) [lactulose] | significantly decreased | tended to decrease | decreased, although not significantly | significantly decreased | decreased, although not significantly
Cl.NCCC[C@H](N)C(=O)O [ornithine, L-ornithine hydrochloride] | – | – | decreased, although not significantly | – | –
